Test results published in patent US20240316045A1, “CYCLOPROPYLAMIDE COMPOUNDS AGAINST PARASITES IN FISH” (Intervet Inc., priority 2021, published 2024).

Key:
[1] = test system: Copepodids (juvenile sea lice stage of Lepeophtheirus salmonis); assay: Juvenile sea lice contact assay; conditions: approx. 24 hours continuous exposure, read-out: Sea lice inhibition (% of dead+damaged copepodids); for inhibition at 0.01 µM: test concentration 10 nM; for inhibition at 0.1 µM: test concentration 100 nM
Method: Copepodids (juvenile sea lice stage of Lepeophtheirus salmonis) were exposed to seawater spiked with declining concentrations of a test compound (dissolved in a DMSO sea-water mixture). Sea lice inhibition (% of dead+damaged copepodids) was assessed after approximately 24 hours of continuous exposure. The vitality of used parasites was confirmed in a negative (solvent) control group.

[2] = test system: Mobile stages of sea lice (pre-adults, adults of Lepeophtheirus salmonis); assay: Adult sea lice contact assay; conditions: pre-adult/adult L. salmonis, assessed after approx. 1 and 24 hours, time of EC50 not stated, read-out: EC50 (sea lice inhibition, dead+damaged)
Method: Mobile stages of sea lice (i.e., pre-adults, adults of Lepeophtheirus salmonis) were exposed to seawater spiked with declining concentrations of a test compound (dissolved in a PEG sea-water mixture). Sea lice inhibition (% of dead+damaged sea lice) was assessed after approximately 1 and 24 hours of continuous exposure in comparison to a negative (solvent) control group.

Compound | inhibition at 0.1 µM [1] [%] | further results
Cc1ccccc1NC(=O)c1cc(NC(=O)C2C(c3cc(Cl)cc(Cl)c3)C2(Cl)Cl)ccc1Cl (centres unmarked) [Compound 1000] |  | inhibition at 0.01 µM [1]: 100%
Cc1ccc(NC(=O)C2C(c3cc(Cl)cc(Cl)c3)C2(Cl)Cl)cc1C(=O)Nc1ccc(F)cc1 (centres unmarked) [Compound 1001] | 100 | 
O=C(Nc1ccccc1)c1cc(NC(=O)C2C(c3cc(Cl)cc(Cl)c3)C2(Cl)Cl)ccc1Cl (centres unmarked) [Compound 1004] |  | inhibition at 0.01 µM [1]: 80%
N#Cc1cccc(NC(=O)c2cc(NC(=O)C3C(c4cc(Cl)cc(Cl)c4)C3(Cl)Cl)ccc2Cl)c1 (centres unmarked) [Compound 1005] | 100 | 
O=C(Nc1c(F)cc(F)cc1F)c1cc(NC(=O)C2C(c3cc(Cl)cc(Cl)c3)C2(Cl)Cl)ccc1Cl (centres unmarked) [Compound 1006] |  | EC50 [2]: ≤ 1 nM
O=C(Nc1cccnc1)c1cc(NC(=O)C2C(c3cc(Cl)cc(Cl)c3)C2(Cl)Cl)ccc1Cl (centres unmarked) [Compound 1008] | 100 | 
O=C(Nc1ccc(Cl)nc1)c1cc(NC(=O)C2C(c3cc(Cl)cc(Cl)c3)C2(Cl)Cl)ccc1Cl (centres unmarked) [Compound 1010] | 100 | 
N#Cc1ccc(NC(=O)c2cc(NC(=O)C3C(c4cc(Cl)cc(Cl)c4)C3(Cl)Cl)ccc2Cl)cn1 (centres unmarked) [Compound 1011] |  | inhibition at 0.01 µM [1]: 100%
Cc1cc(Cl)cc(C2C(C(=O)Nc3ccc(Cl)c(C(=O)Nc4ccc(F)cc4)c3)C2(Cl)Cl)c1 (centres unmarked) [Compound 1016] | 100 | 
Cc1cc(Cl)cc(C2C(C(=O)Nc3ccc(Cl)c(C(=O)Nc4c(F)cccc4F)c3)C2(Cl)Cl)c1 (centres unmarked) [Compound 1018] | 100 | 
O=C(Nc1ccc(F)cc1)c1cc(NC(=O)C2C(c3cc(Cl)cc(Cl)c3)C2(Cl)Cl)ccc1Cl (centres unmarked) [Compound 1021] | 100 | 
CN(C(=O)c1cc(NC(=O)C2C(c3cc(Cl)cc(Cl)c3)C2(Cl)Cl)ccc1Cl)c1ccc(F)cc1 (centres unmarked) [Compound 1022] | ≥ 80 | 
N#Cc1cc(F)ccc1NC(=O)c1cc(NC(=O)C2C(c3cc(Cl)cc(Cl)c3)C2(Cl)Cl)ccc1Cl (centres unmarked) [Compound 1026] | 100 | 
O=C(Nc1ncc(F)cn1)c1cc(NC(=O)C2C(c3cc(Cl)cc(Cl)c3)C2(Cl)Cl)ccc1Cl (centres unmarked) [Compound 1028] | 100 | 
O=C(Nc1cccc(F)n1)c1cc(NC(=O)C2C(c3cc(Cl)cc(Cl)c3)C2(Cl)Cl)ccc1Cl (centres unmarked) [Compound 1030] | ≥ 80 | 
Cc1cc(F)cnc1NC(=O)c1cc(NC(=O)C2C(c3cc(Cl)cc(Cl)c3)C2(Cl)Cl)ccc1Cl (centres unmarked) [Compound 1031] | 100 | 
O=C(Nc1cncnc1)c1cc(NC(=O)C2C(c3cc(Cl)cc(Cl)c3)C2(Cl)Cl)ccc1Cl (centres unmarked) [Compound 1038] |  | inhibition at 0.01 µM [1]: 80%
N#Cc1cccc(F)c1NC(=O)c1cc(NC(=O)C2C(c3cc(Cl)cc(Cl)c3)C2(Cl)Cl)ccc1Cl (centres unmarked) [Compound 1040] | 100 | 
O=C(Nc1ncc(F)cc1F)c1cc(NC(=O)[C@H]2[C@H](c3ccc(Cl)c(Cl)c3)C2(Cl)Cl)ccc1Cl [Compound 1041] |  | EC50 [2]: 1 to 10 nM
O=C(Nc1ncc(F)cc1F)c1cc(NC(=O)[C@H]2[C@H](c3ccc(F)c(Cl)c3)C2(Cl)Cl)ccc1Cl [Compound 1042] |  | EC50 [2]: 1 to 10 nM
Nc1cccc(NC(=O)c2cc(NC(=O)C3C(c4cc(Cl)cc(Cl)c4)C3(Cl)Cl)ccc2Cl)n1 (centres unmarked) [Compound 1045] | 100 | 
Nc1cccc(NC(=O)c2cc(NC(=O)C3C(c4ccc(F)c(Cl)c4)C3(Cl)Cl)ccc2Cl)n1 (centres unmarked) [Compound 1046] | 100 | 
N#Cc1cc(Cl)cc(C2C(C(=O)Nc3ccc(Cl)c(C(=O)Nc4ncc(F)cc4F)c3)C2(Cl)Cl)c1 (centres unmarked) [Compound 1048] | 100 | 
O=C(Nc1cncc([N+](=O)[O-])c1)c1cc(NC(=O)C2C(c3cc(Cl)cc(Cl)c3)C2(Cl)Cl)ccc1Cl (centres unmarked) [Compound 1051] | 100 | 

Compound | inhibition at 0.1 µM [1] [%] | further results
O=C(Nc1ccnc(Cl)c1)c1cc(NC(=O)C2C(c3cc(Cl)cc(Cl)c3)C2(Cl)Cl)ccc1Cl (centres unmarked) [Compound 1055] | ≥ 80 | 
O=C(Nc1ncc(F)c(I)c1F)c1cc(NC(=O)C2C(c3cc(Cl)cc(Cl)c3)C2(Cl)Cl)ccc1Cl (centres unmarked) [Compound 1060] | 100 | 
Cc1cc(NC(=O)c2cc(NC(=O)C3C(c4cc(Cl)cc(Cl)c4)C3(Cl)Cl)ccc2Cl)cnc1F (centres unmarked) [Compound 1064] | 100 | 
COc1cc(NC(=O)c2cc(NC(=O)C3C(c4cc(Cl)cc(Cl)c4)C3(Cl)Cl)ccc2Cl)ccn1 (centres unmarked) [Compound 1069] | 100 | 
COc1ccc(NC(=O)c2cc(NC(=O)C3C(c4cc(Cl)cc(Cl)c4)C3(Cl)Cl)ccc2Cl)cn1 (centres unmarked) [Compound 1075] | 100 | 
COc1ccc(NC(=O)c2cc(NC(=O)C3C(c4ccc(F)c(Cl)c4)C3(Cl)Cl)ccc2Cl)cn1 (centres unmarked) [Compound 1076] | ≥ 80 | 
O=C(Nc1ncc(F)cc1F)c1cc(NC(=O)C2C(c3cc(Cl)cc(C(F)F)c3)C2(Cl)Cl)ccc1Cl (centres unmarked) [Compound 1079] | 100 | 
O=C(Nc1ncc(F)cc1F)c1cc(NC(=O)C2C(c3ccc(Cl)c(C(F)F)c3)C2(Cl)Cl)ccc1Cl (centres unmarked) [Compound 1080] | 100 | 
O=C(Nc1ncc(F)cc1F)c1cc(NC(=O)C2C(c3cc(F)cc(C(F)F)c3)C2(Cl)Cl)ccc1Cl (centres unmarked) [Compound 1081] | 100 | 
O=C(Nc1ncc(F)cc1F)c1cc(NC(=O)C2C(c3ccc(F)c(C(F)F)c3)C2(Cl)Cl)ccc1Cl (centres unmarked) [Compound 1082] | 100 | 
O=C(Nc1ncc(F)cc1F)c1cc(NC(=O)C2C(c3ccc(C(F)F)c(Cl)c3)C2(Cl)Cl)ccc1Cl (centres unmarked) [Compound 1083] | 100 | 
O=C(Nc1ncc(F)cc1F)c1cc(NC(=O)C2C(c3cccc(C(F)F)c3)C2(Cl)Cl)ccc1Cl (centres unmarked) [Compound 1085] | 100 | 
O=C(Nc1ccc(F)cc1F)c1cc(NC(=O)[C@H]2[C@H](c3cc(Cl)cc(Cl)c3)C2(Cl)Cl)ccc1F [Compound 1091] |  | EC50 [2]: 1 to 10 nM
O=C(Nc1c(F)cc(F)cc1F)c1cc(NC(=O)[C@H]2[C@H](c3cc(Cl)cc(Cl)c3)C2(Cl)Cl)ccc1Cl [Compound 1092] |  | EC50 [2]: 1 to 25 nM
Nc1c(F)ccc(NC(=O)c2cc(NC(=O)C3C(c4cc(F)cc(C(F)(F)F)c4)C3(Cl)Cl)ccc2Cl)c1F (centres unmarked) [Compound 1132] | 100 | 
Nc1c(F)ccc(NC(=O)c2cc(NC(=O)C3C(c4cccc(F)c4)C3(Cl)Cl)ccc2Cl)c1F (centres unmarked) [Compound 1227] | 100 | 
Nc1c(F)ccc(NC(=O)c2cc(NC(=O)C3C(c4cccc(C(F)(F)F)c4)C3(Cl)Cl)ccc2Cl)c1F (centres unmarked) [Compound 1243] | 100 | 
Nc1c(F)ccc(NC(=O)c2cc(NC(=O)C3C(c4cccc(Cl)c4)C3(Cl)Cl)ccc2Cl)c1F (centres unmarked) [Compound 1248] | 100 | 
O=C(Nc1ccc2nccn2c1)c1cc(NC(=O)C2C(c3cc(Cl)cc(Cl)c3)C2(Cl)Cl)ccc1Cl (centres unmarked) [Compound 1373] | 100 | 
O=C(Nc1ncc(F)cc1F)c1c(Cl)ccc(NC(=O)C2C(c3cc(Cl)cc(Cl)c3)C2(Cl)Cl)c1F (centres unmarked) [Compound 1381] | 100 | 
Cc1ccc(NC(=O)C2C(c3ccc(Cl)c(Cl)c3)C2(Cl)Cl)c(F)c1C(=O)Nc1ncc(F)cc1F (centres unmarked) [Compound 1382] | 100 | 
O=C(Nc1ncc(F)cc1F)c1cc(NC(=O)C2C(c3cc(Cl)c(Cl)c(Cl)c3)C2(Cl)Cl)ccc1Cl (centres unmarked) [Compound 1384] | 100 | 
O=C(Nc1ccc(F)cc1F)c1cc(NC(=O)C2C(c3cc(C(F)(F)F)cc(C(F)(F)F)c3)C2(Cl)Cl)ccc1Cl (centres unmarked) [Compound 1386] |  | inhibition at 0.01 µM [1]: 80%
